# Laboratory results published in patent US6346602B1, “Peptide mimics of the cytokine receptor common γ chain and methods and compositions for making and using the same” (Thomas Jefferson University, priority 1997, dated 2002).
# Test system: IL-4 induced proliferation of CTLL cell line
# Experiment: CTLL Proliferation Assay (IL-4)
# Type: cell-based, murine
# Settings: CTLL cells, exogenous IL-4 (mIL-4), titred peptide; FIGS. 1A-1D, 2
# Description: CTLL Proliferation Assay: The murine IL-2- and IL-4-responsive CTLL cell line was used to assess the ability of the gamma chain peptides to inhibit the binding of these cytokines to their respective receptors. The cell line proliferates in responses to exogenously added cytokine and inhibition of this proliferation by the peptides would be a result of blocking the cytokines from interacting with their receptors. Briefly, 5000 CTLL cells are added to the wells of a 96 well microtitre plate. Either 10 U/ml r-mIL-2 or 1 ng/ml r-mIL-4 are added to these wells along with titred amounts of the indicated peptides. Cultures are incubated at 37° C. for 24 hours and pulsed with ^3H-TdR for the final 6 hours to indicate amount of proliferation. Wells containing no peptide are deemed the positive response and well containing no peptide and no cytokine are deemed the background (bkg) proliferation. A percent response is calculated as follows: (CPM experimental-CPM bkg)/CPM positive response-CPM bkg). All data are expressed in this manner.
row,Sequence,effect on cell proliferation in response to exogenous IL-4
1,CLNLQNLC [gamma-5],inhibits cell proliferation
2,CNHEPRFLSC [gamma-4],inhibits cell proliferation
